Results published in patent US20240335483A1, “NEW METHOD TO TREAT AUTOIMMUNE DISEASES” (INSTITUT NATIONAL DE LA SANTÉ ET DE LA RECHERCHE MÉDICALE, priority 2021, published 2024).
“Also recorded” adds a separate entry of the source.

Legend:
Assay type in all cases: in vivo, mouse
Treg cells = test: Flow cytometry of regulatory T cells in tissues
Description: (§1) Pancreata were perfused with a solution of collagenase P in HBSS-1% HEPES (0.75 mg.ml-1, Roche), then dissected free from surrounding tissues. Pancreata were digested at 37° C. for 8 min. Digestion was stopped by adding HBSS-10% FCS-1% EDTA followed by extensive washes. For flow cytometry analysis, islets were isolated on a discontinuous Ficoll® PM400 gradient (Sigma-Aldrich) and then isolated islets were handpicked to exclude contaminations from intrapancreatic lymph nodes. Cells were released from the islets by incubation at 37° C. for 6 min in non-enzymatic cell dissociation solution (Sigma-Aldrich). For RT-qPCR, to avoid potential contamination by exocrine tissue, islets were purified by handpicking in 3 consecutive baths of HBSS-10% FCS supplemented with 1% DNAse 1.
Immune cells from the colon were isolated using the Lamina Propria Dissociation Kit from Miltenyi (#130-097-410), combined with gentleMACS™ Octo dissociator with heaters (#130-096-427) according to the manufacturer's instructions.
(§2) Single cell suspensions were prepared from various tissues, surface staining was performed after FcγRII/III blocking (anti-CD16/CD32) for 5 min at 4° C. and were surface stained for 30 min at 4° C. Staining buffer was PBS containing 2% FCS, 0.5% EDTA and 0.1% sodium azide. […] Stained cells were analyzed on a Becton Dickinson Fortessa flow cytometer. Data were analyzed with Flowjo™ v10 software.

NOD mice = test: Spontaneous diabetes incidence
Description: Female NOD, BALB/c, C57BL/6J, C57BL/6J camp−/− in different ages were used, bred and housed in specific pathogen-free conditions. Recombinant mouse CRAMP1-39 and scrambled (sc)CRAMP1-39 were produced under aseptic conditions and provided after endotoxin removal processing (Innovagen). Newborn NOD mice were treated by intra-colonic treatment between 10 and 21 days of age every 3 days with CRAMP or scCRAMP (10 μg in 10 μL/mouse/injection) or vehicle (PBS-1% H2O). For blocking TLR experiments, newborn NOD mice were treated between 7 and 14 days of age every 3 days with TLR2 inhibitor CU CTP22 (25 μg in 10 μL/mouse/injection) or TLR4 inhibitor TAK242 (25 μg in 10 μL/mouse/injection) or with TLR5 inhibitor TH1020 (20 μg in 10 μL/mouse/injection) or with vehicle (PBS 1% DMSO). All inhibitors are from Tocris. For modulating IFNα experiment, newborn NOD mice were treated between 7 and 14 days of age every 3 days with anti-IFNα receptor mAb (200 μg in 10 μL/mouse/injection) (BioXcell) or equivalent amount of isotype control (mouse IgGI) or gardiquimod (50 μg in 10 μL/mouse/injection) or vehicle (PBS-1% H2O). For CRAMP-expressing probiotic experiment, pregnant NOD mice were given CRAMP-expressing Lactococcus lactis or conventional L. lactis ([…] colony forming units (cfu) in 100 μL PBS/mice) by oral gavage one day before delivery. For cross-fostering experiments, NOD pups were adopted immediately at birth by recipient mice (C57BL/6, BALB/c, CRAMP-treated NOD mice or NOD mice), that delivered the same day and pups from the two litters were maintained in the same cage. All animal experimental protocols were approved by the ethic committee for animal experimentation (APAFIS #3535-2015092416202090).
NOD mice were treated as described above with CRAMP or scCRAMP, anti-IFNαR mAb, gardiquimod or were born from CRAMP-expressing L. lactis treated NOD mice or were cross-fostered by CRAMP-treated NOD mice. […]
Diabetes incidence was plotted according to the Kaplan-Meier method. […] All data were analyzed using GraphPad Prism v6 software.

[1] = tested on: IGRP206-214-specific CD8+ T cells; test: Flow cytometry of diabetogenic IGRP206-214-specific CD8+ T cells; conditions: 12-week-old NOD mice after intracolonic CRAMP as newborns
Description: as §1
as §2, with “azide. For detection of the subsets of conventional dendritic cells, cells suspension were surface stained with anti-CD45, -TCRβ, -CD19-CD11c, -F4/80, -CD103, -CD11b.” for “azide.”

TLR2 ligands = test: TLR2 ligand levels in colon extract (HEK-blue TLR reporter cells); conditions: NOD mice, intracolonic CRAMP treatment
Description: (§3) Colons from 2-week-old mice were recovered in 100 μL PBS, cut in some pieces and homogenized by vortexing. Cell-free supernatant was recovered after centrifugation at 10 000 g for 10 min. A 100-fold dilution was used to measure TLR2 and TLR4 ligand levels in the supernatants using HEK-blue™ TLR reporter cells ([…], #hkb-mtlr2 and #hkb-mtlr4) according to the manufacturer protocol.

TLR4 ligands = test: TLR4 ligand levels in colon extract (HEK-blue TLR reporter cells); conditions: NOD mice, intracolonic CRAMP treatment
Description: as §3

type I IFN signature = test: Colonic type I IFN signature (RNAseq, RT-qPCR)
Description: (§4) Total RNA was isolated using the Nucleospin RNA XS kit (Macherey-Nagel) from a minimum of 100 handpicked islets per mouse or using Nucleospin RNA kit (Macherey-Nagel) for colon tissue. RNA was reverse transcribed to synthesized cDNA using the high capacity cDNA reverse transcription kit (ThermoFisher) and measurements were performed by qPCR using Power SYBR® Green (ThermoFisher) on a 7900HT Fast System (Applied Biosystems). Resulting levels of fluorescence were submitted to relative quantification by normalization against a housekeeping gene (GAPDH) and expressed as 2-(ΔCT) values.
Colon tissue was recovered from 5 mice from 5 independent cages per group. Total RNA were isolated from colon using the RNeasy Kit (QIAGEN) including a DNAse treatment step. RNA quality was assessed using RNA Screen Tape 6000 Pico LabChips with the Tape Station (Agilent Technologies) and RNA concentration was measured by spectrophometry using the Xpose (Trinean). RNAseq libraries were prepared starting from 1 μg of total RNA using the TruSeq Stranded mRNA LT Sample Prep Kit (Illumina) as recommended by the manufacturer. […] A mean of 23 million of paired-end reads was produced per library sample (between 21 to 25 million of passing filter reads). The generated data were analyzed using the Ingenuity Pathway Analysis software (Qiagen).

[2] = tested on: inflammatory and regulatory cytokines in colon; test: Cytokine expression in colon (RT-qPCR)
Description: as §4

microbiota = test: 16S rDNA gene sequencing of microbiota composition; conditions: 5 weeks of age, after intracolonic CRAMP in newborn NOD mice
Description: Stools were recovered from 5 mice from 5 independent cages per group, and were stored at −80° C. in DNA/RNA Shield™ (Zymo Research, #R1100-250) immediately after emission before shipment to Zymo Research (ZymoBIOMICS Services). For CRAMP treatment experiments, pups from different litters were randomly mixed and then separate before treatment with CRAMP or scCRAMP. The samples were processed and analyzed with the ZymoBIOMICS® Targeted Sequencing Service for Microbiome Analysis (Zymo Research, Irvine, CA). DNA Extraction: One of three different DNA extraction kits was used depending on the sample type and sample volume. In most cases, the ZymoBIOMICS® DNA Miniprep Kit (Zymo Research, Irvine, CA) was used. For low biomass samples, such as skin swabs, the ZymoBIOMICS® DNA Microprep Kit (Zymo Research, Irvine, CA) was used as it permits for a lower elution volume, resulting in more concentrated DNA samples. For a large sample volume, the ZymoBIOMICS@-96 MagBead DNA Kit (Zymo Research, Irvine, CA) was used to extract DNA using an automated platform. Targeted Library Preparation: Bacterial 16S ribosomal RNA gene targeted sequencing was performed using the Quick-16S™ NGS Library Prep Kit (Zymo Research, Irvine, CA). The bacterial 16S primers amplified the V1-V2 or V3-V4 region of the 16S rRNA gene. These primers have been custom-designed by Zymo Research to provide the best coverage of the 16S gene while maintaining high sensitivity. Fungal ITS gene targeted sequencing was performed using the Quick-16S™ NGS Library Prep Kit with custom ITS2 primers substituted for 16S primers. […] The final PCR products were quantified with qPCR fluorescence readings and pooled together based on equal molarity. The final pooled library was cleaned up with the Select-a-Size DNA Clean & Concentrator™ (Zymo Research, Irvine, CA), then quantified with TapeStation®(Agilent Technologies, Santa Clara, CA) and Qubit® (Thermo Fisher Scientific, Waltham, […]). […] Bioinformatics Analysis: Unique amplicon sequences were inferred from raw reads using the DADA2 pipeline. […]

Molecule | frequency of pancreatic LAP+ Treg cells (Treg cells; male NOD mice, intracolonic gardiquimod at 10 days of age, pancreatic islets at 12 weeks of age) | diabetes incidence (NOD mice; gardiquimod, intracolonic, newborn female NOD mice) | frequency and absolute number of Treg cells (Treg cells; prediabetic 12-week-old NOD mice after intracolonic CRAMP as newborns, pancreas, colon, PLN, MLN, spleen) | development (incidence) of diabetes (NOD mice; female NOD mice, intracolonic CRAMP every 3 days from 10 to 21 days of age, control scCRAMP, FIG. 1A) | incidence of diabetes in adopted NOD mice (NOD mice; newborn NOD mice from untreated dams cross-fostered to NOD dams treated by CRAMP between 10 and 21 days of age, FIG. 1) | frequency and absolute number of IGRP206-214-specific CD8+ effector T cells [1] | level of TLR2 ligands in the colon (TLR2 ligands) | level of TLR4 ligands in the colon (TLR4 ligands) | type I IFN signature in the colon (type I IFN signature; colonic CRAMP treatment of 10-day-old NOD mice) | type I IFN signature in the newborns (type I IFN signature; newborn NOD mice cross-fostered by NOD dams previously treated with CRAMP at 10 days of age) | cytokine profile in the colon ([2]; CRAMP treatment of adult NOD mice) | expression of inflammatory cytokines in colon ([2]; adult NOD colon after CRAMP treatment of newborn NOD mice) | abundance of the genera Lactobacillus and Bifidobacterium (microbiota) | abundance of the genus Alistipes (microbiota) | microbiota composition (microbiota; control scCRAMP)
CCNCc1nc2c(N)nc3ccccc3c2n1CC(C)(C)O [gardiquimod, reference compound] | decreased the frequency of pancreatic LAP+ Treg cells in the adult NOD mice | increased | – | – | – | – | – | – | – | – | – | – | – | – | –
CRAMP | – | – | increased the frequency, but not the absolute number, of Treg cells in the pancreas and colon of adult NOD mice | significantly prevented the development of diabetes | decrease of diabetes development; also recorded: decreased incidence of diabetes in the adopted NOD mice | decreased in the pancreas and PLN in the adult mice | reduced the levels of TLR2 and TLR4 ligands in the colon | reduced the levels of TLR2 and TLR4 ligands in the colon | reduced | prevented the aberrant type I IFN signature in the newborns | inefficient at changing the cytokine profile in the colon | prevented the overexpression of inflammatory cytokines in the adult NOD colon | increased abundance | decreased abundance | changed microbiota composition in the adult mice
